Reference: patent US20090036450A1, “PYRAZOLE COMPOUNDS AND USE THEREOF” (JAPAN TOBACCO, INC., priority 2006, published 2009)
pIC50: −log10 of the molar value.

Biological target: T1, human liver glycogen phosphorylase (Homo sapiens, UniProt P06737)
T1 construct: made in house; host or cells: Sf9 insect cells (suspension of disrupted cells, diluted in BES buffer, not purified)
T1 sequence (P06737 1-847): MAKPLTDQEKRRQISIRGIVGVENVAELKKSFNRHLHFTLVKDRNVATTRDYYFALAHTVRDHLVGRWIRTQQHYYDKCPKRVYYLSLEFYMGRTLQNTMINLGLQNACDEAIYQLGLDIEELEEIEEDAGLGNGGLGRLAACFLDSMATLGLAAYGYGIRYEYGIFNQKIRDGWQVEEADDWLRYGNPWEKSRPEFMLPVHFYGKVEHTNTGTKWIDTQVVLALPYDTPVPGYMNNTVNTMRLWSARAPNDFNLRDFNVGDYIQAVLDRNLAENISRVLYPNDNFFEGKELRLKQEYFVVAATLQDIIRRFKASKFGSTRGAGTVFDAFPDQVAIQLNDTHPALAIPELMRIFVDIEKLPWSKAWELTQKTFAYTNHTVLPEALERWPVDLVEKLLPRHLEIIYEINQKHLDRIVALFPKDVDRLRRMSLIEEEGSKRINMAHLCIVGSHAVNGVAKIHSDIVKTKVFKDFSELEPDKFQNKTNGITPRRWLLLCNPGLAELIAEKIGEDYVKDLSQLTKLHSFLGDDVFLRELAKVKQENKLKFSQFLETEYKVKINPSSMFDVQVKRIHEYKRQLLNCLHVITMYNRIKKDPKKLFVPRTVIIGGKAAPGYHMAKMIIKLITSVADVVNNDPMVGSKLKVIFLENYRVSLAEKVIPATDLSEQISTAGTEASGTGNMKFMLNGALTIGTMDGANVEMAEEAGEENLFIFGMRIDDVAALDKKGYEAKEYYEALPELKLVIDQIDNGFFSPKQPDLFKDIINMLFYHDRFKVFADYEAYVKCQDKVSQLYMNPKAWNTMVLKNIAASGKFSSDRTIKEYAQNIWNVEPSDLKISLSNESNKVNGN
Assay: Liver glycogen phosphorylase activity, forward reaction system (NADPH detection at 340 nm)
Assay type: biochemical
Settings: enzyme inhibitory activity against recombinant human liver glycogen phosphorylase (Sf9 cell lysate), room temperature, 75 minutes
Procedure: The glycogen phosphorylase activity was determined by a method using a forward reaction system.
The following method was used to determine the glycogen phosphorylase activity using a forward reaction system. Glucose-1-phosphate generated from glycogen by glycogen phosphorylase was converted to glucono-δ-lactone-6-phosphate by transphosphorylation and dehydrogenation reactions using phosphoglucomutase and glucose-6-phosphate dehydrogenase (G6PDH). At this time, NADPH generated from NADP in the dehydrogenation reaction by G6PDH was detected.
An enzyme solution of human liver glycogen phosphorylase was obtained by diluting with 100 mmol/L BES buffer (pH 6.8, containing 2 mmol/L EDTA) a suspension disrupted Sf9 cells in which a recombinant human liver glycogen phosphorylase was forcibly expressed. Phosphate buffer (16 mmol/L KH2PO4, containing 24 mmol/L Na2HPO4) was used as a substrate solution. A mixture of 8 U/mL phosphoglucomutase and 60 U/mL G6PDH was prepared with BES buffer. A reaction buffer (1.4 mmol/L NADP, 30 mmol/L MgCl2, 8 μmol/L glucose-1,6-diphosphate, 8 mg/mL glycogen, 40 mmol/L BES, containing 0.8 mmol/L EDTA) and a glucose solution (75 mmol/L glucose and 100 mmol/L BES, containing 2 mmol/L EDTA) were prepared. A test substance was dissolved in 1% DMSO aqueous solution.
To a mixture of the glucose solution (20 μL), the substrate solution (20 μL), the reaction buffer (100 μL), and the test substance (20 μL), the recombinant human liver glycogen phosphorylase solution (20 μL), and a mixture (20 μL) of phosphoglucomutase and G6PDH were added to initiate an enzymatic reaction. To a control, 1% DMSO aqueous solution was added instead of the test substance. A solution to which the substrate was not added was used as a blank. After initiation of the reaction, absorbance at 340 nm was measured immediately. The reaction was performed at room temperature for 75 minutes, and then absorbance at 340 nm was measured again. The enzyme activity was obtained by deducting the change in absorbance of the blank for 75 minutes from the change in absorbance over 75 minutes. The inhibition rate (%) of the test substance was calculated by “(1−(enzyme activity of test substance)/(enzyme activity of control))×100”.
“IC50” represents an enzyme inhibitory activity against human liver glycogen phosphorylase.

Row | pIC50 | Compound
1 | > 7.00 | Cc1nc(COCc2ccccc2)oc1CNC(=O)c1cc(NC(=O)c2cc(F)c(F)cc2Cl)[nH]n1 [Example 1-47, 5-(2-chloro-4,5-difluoro-benzoylamino)-1H-pyrazole-3-carboxylic acid (2-benzyloxymethyl-4-methyl-oxazol-5-ylmethyl)-amide]
2 | > 7.00 | Cc1ccc(S(=O)(=O)NCc2nc(C)c(CNC(=O)c3cc(NC(=O)c4cc(F)c(F)cc4Cl)[nH]n3)o2)cc1 [Example 3-11, 5-(2-chloro-4,5-difluoro-benzoylamino)-1H-pyrazole-3-carboxylic acid {4-methyl-2-[(toluene-4-sulfonylamino)-methyl]-oxazol-5-ylmethyl}-amide]
3 | > 7.00 | O=C(NCc1nnc(-c2ccc(Cl)cc2)o1)c1cc(NC(=O)c2cc(F)c(F)cc2Cl)[nH]n1 [Example 1-52, 5-(2-chloro-4,5-difluoro-benzoylamino)-1H-pyrazole-3-carboxylic acid [5-(4-chloro-phenyl)-[1,3,4]oxadiazol-2-ylmethyl]-amide]
4 | > 7.00 | Cc1ncc(CNC(=O)c2cc(NC(=O)c3cc(F)c(F)cc3Cl)[nH]n2)c(-c2cccc(F)c2)n1 [Example 1-79, 5-(2-chloro-4,5-difluoro-benzoylamino)-1H-pyrazole-3-carboxylic acid [4-(3-fluoro-phenyl)-2-methyl-pyrimidin-5-ylmethyl]-amide]
5 | 6.52 to 7.00 | CCOC(=O)Cc1nnc(CNC(=O)c2cc(NC(=O)c3cc(F)c(F)cc3Cl)[nH]n2)o1 [Example 1-62]
6 | > 7.00 | Cc1nc(C(=O)OCc2ccccc2)oc1CNC(=O)c1cc(NC(=O)c2cc(F)c(F)cc2Cl)[nH]n1 [Example 3-17, 5-(2-chloro-4,5-difluoro-benzoylamino)-1H-pyrazole-3-carboxylic acid (2-benzyloxycarbonyl-4-methyl-oxazol-5-ylmethyl)-amide]
7 | > 7.00 | Cc1nc(-c2ccccc2F)c(CNC(=O)c2cc(NC(=O)c3cc(F)c(F)cc3Cl)[nH]n2)o1 [Example 1-27, 5-(2-chloro-4,5-difluoro-benzoylamino)-1H-pyrazole-3-carboxylic acid [4-(2-fluoro-phenyl)-2-methyl-oxazol-5-ylmethyl]-amide]
8 | > 7.00 | Cc1nc(-c2ccc(CNC(=O)c3cc(NC(=O)c4cc(F)c(F)cc4Cl)[nH]n3)s2)cs1 [Example 1-4, 5-(2-chloro-4,5-difluoro-benzoylamino)-1H-pyrazole-3-carboxylic acid [5-(2-methyl-thiazol-4-yl)-thiophen-2-ylmethyl]-amide]
9 | > 7.00 | CCOC(=O)c1ccc(CNC(=O)c2cc(NC(=O)c3cc(F)c(F)cc3Cl)[nH]n2)o1 [Example 1-1, 5-(2-chloro-4,5-difluoro-benzoylamino)-1H-pyrazole-3-carboxylic acid (5-ethoxycarbonyl-furan-2-ylmethyl)-amide]
10 | > 7.00 | O=C(NCc1nnc(Cc2ccccc2)o1)c1cc(NC(=O)c2cc(F)c(F)cc2Cl)[nH]n1 [Example 1-74, 5-(2-chloro-4,5-difluoro-benzoylamino)-1H-pyrazole-3-carboxylic acid (5-benzyl-[1,3,4]oxadiazol-2-ylmethyl)-amide]
11 | > 7.00 | Cc1ccc(-c2nc(C)oc2CNC(=O)c2cc(NC(=O)c3cc(F)c(F)cc3Cl)[nH]n2)cc1 [Example 1-29, 5-(2-chloro-4,5-difluoro-benzoylamino)-1H-pyrazole-3-carboxylic acid [4-(4-methyl-phenyl)-2-methyl-oxazol-5-ylmethyl]-amide]
12 | > 7.00 | Cc1onc(-c2ccc(S(C)(=O)=O)cc2)c1CNC(=O)c1cc(NC(=O)c2cc(F)c(F)cc2Cl)[nH]n1 [Example 1-16, 5-(2-chloro-4,5-difluoro-benzoylamino)-1H-pyrazole-3-carboxylic acid [3-(4-methanesulfonyl-phenyl)-5-methylisoxazol-4-ylmethyl]-amide]
13 | > 7.00 | Cc1nc(CCc2ccccc2)oc1CNC(=O)c1cc(NC(=O)c2cc(F)c(F)cc2Cl)[nH]n1 [Example 1-42, 5-(2-chloro-4,5-difluoro-benzoylamino)-1H-pyrazole-3-carboxylic acid (4-methyl-2-phenethyl-oxazol-5-ylmethyl)-amide]
14 | > 7.00 | Cc1ccc(Cn2nnc(CNC(=O)c3cc(NC(=O)c4cc(F)c(F)cc4Cl)[nH]n3)c2C)cc1 [Example 1-64, 5-(2-chloro-4,5-difluoro-benzoylamino)-1H-pyrazole-3-carboxylic acid [5-methyl-1-(4-methyl-benzyl)-1H-[1,2,3]triazol-4-ylmethyl]-amide]
15 | > 7.00 | Cc1nc(COc2ccccc2)oc1CNC(=O)c1cc(NC(=O)c2cc(F)c(F)cc2Cl)[nH]n1 [Example 1-44, 5-(2-chloro-4,5-difluoro-benzoylamino)-1H-pyrazole-3-carboxylic acid (4-methyl-2-phenoxymethyl-oxazol-5-ylmethyl)-amide]
16 | > 7.00 | Cc1nc(CCc2ccccc2)c(CNC(=O)c2cc(NC(=O)c3cc(F)c(F)cc3Cl)[nH]n2)o1 [Example 1-33, 5-(2-chloro-4,5-difluoro-benzoylamino)-1H-pyrazole-3-carboxylic acid (2-methyl-4-phenethyl-oxazol-5-ylmethyl)-amide]
17 | > 7.00 | O=C(NCc1ccc(C(=O)O)o1)c1cc(NC(=O)c2cc(F)c(F)cc2Cl)[nH]n1 [Example 3-1, 5-(2-chloro-4,5-difluoro-benzoylamino)-1H-pyrazole-3-carboxylic acid (2-carboxy-furan-5-ylmethyl)-amide]
18 | > 7.00 | Cc1nc(C2CCCCC2)c(CNC(=O)c2cc(NC(=O)c3cc(F)c(F)cc3Cl)[nH]n2)o1 [Example 1-38, 5-(2-chloro-4,5-difluoro-benzoylamino)-1H-pyrazole-3-carboxylic acid (4-cyclohexyl-2-methyl-oxazol-5-ylmethyl)-amide]
19 | > 7.00 | COC(=O)c1nc(C)c(CNC(=O)c2cc(NC(=O)c3cc(F)c(F)cc3Cl)[nH]n2)o1 [Example 1-50, 5-(2-chloro-4,5-difluoro-benzoylamino)-1H-pyrazole-3-carboxylic acid (2-methoxycarbonyl-4-methyl-oxazol-5-ylmethyl)-amide]
20 | > 7.00 | Cc1cc(-c2onc(C)c2CNC(=O)c2cc(NC(=O)c3cc(F)c(F)cc3Cl)[nH]n2)no1 [Example 1-18, 5-(2-chloro-4,5-difluoro-benzoylamino)-1H-pyrazole-3-carboxylic acid (5,3′-dimethyl-[3,5′]biisoxazolyl-4′-ylmethyl)-amide]
21 | > 7.00 | COc1ccccc1-c1nnc(CNC(=O)c2cc(NC(=O)c3cc(F)c(F)cc3Cl)[nH]n2)o1 [Example 1-61, 5-(2-chloro-4,5-difluoro-benzoylamino)-1H-pyrazole-3-carboxylic acid [5-(2-methoxy-phenyl)-[1,3,4]oxadiazol-2-ylmethyl]-amide]
22 | > 7.00 | Cc1nc(C(=O)O)c(CNC(=O)c2cc(NC(=O)c3cc(F)c(F)cc3Cl)[nH]n2)o1 [Example 3-6, 5-(2-chloro-4,5-difluoro-benzoylamino)-1H-pyrazole-3-carboxylic acid (4-carboxy-2-methyl-oxazol-5-ylmethyl)-amide]
23 | > 7.00 | COc1cccc(-c2nc(C)oc2CNC(=O)c2cc(NC(=O)c3cc(F)c(F)cc3Cl)[nH]n2)c1 [Example 1-31, 5-(2-chloro-4,5-difluoro-benzoylamino)-1H-pyrazole-3-carboxylic acid [4-(3-methoxy-phenyl)-2-methyl-oxazol-5-ylmethyl]-amide]
